The text below walks through data of US11753407B2, “Compounds for treating spinal muscular atrophy” (PTC Therapeutics, Inc., priority 2012, dated 2023).

Each structure is given as a SMILES string. Some results are limits rather than exact numbers.

Series [1] concerns SMN2 minigene mRNA (SMN2-A minigene) in HEK293H cells. Kind of series: SMN2 minigene mRNA splicing RT-qPCR assay in cultured cells. The class given is cell-based, human. The following applies: Homo sapiens, HEK293-H; concentration increasing full length SMN2 mRNA 1.5-fold relative to vehicle-treated cells; HEK293H cells with SMN2-A minigene, 24 hours, 7-point concentration data; read-out: EC1.5x for production of full length SMN2 mRNA. Summed up: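 Cells are seeded, left to attach 4-6 h, then dosed with test compound across seven concentrations and incubated 24 h. Lysates undergo RT-qPCR with primers/probe specific to the exon 7-containing minigene transcript, co-amplified with GAPDH. Fold change over vehicle is calculated, and EC1.5× marks the 1.5-fold point.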
A general note: Quantitative PCR measures a nucleic acid by following its amplification.

The subject of series [2] is Smn protein in SMA patient fibroblast cells (GM03813). Briefly: Smn protein assay in cultured cells (SMN HTRF). The class given is cell-based, human. The following applies: SMA patient fibroblast cells, 48 hours; for EC1.5x for Smn protein expression: 7-point concentration curve, SMN HTRF, concentration producing 1.5 times Smn protein vs DMSO vehicle control; for maximum fold (Fold) increase of Smn protein: 7-point concentration data, fold relative to vehicle control. Summed up:
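Patient-derived SMA fibroblasts are plated, given compound for 48 h, then lysed in RIPA buffer with protease inhibitors. Lysate Smn is detected by an anti-SMN d2/kryptate HTRF pair incubated overnight. The normalized ΔF is divided by the vehicle ΔF to give fold change, from which EC1.5× and maximum fold are taken.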
For orientation: TR-FRET usually uses a lanthanide donor and a delayed reading to cut background.

The melting point is the temperature, or range, at which the solid turns liquid. `CCc1nc(C)cn2nc(-c3cc(=O)n4cc(C5CCN(C)CC5)ncc4n3)cc12` [Compound 654, 2-(4-ethyl-6-methylpyrazolo[1,5-a]pyrazin-2-yl)-7-(1-methylpiperidin-4-yl)-4H-pyrazino[1,2-a]pyrimidin-4-one]: the melting point fell in the range of 261 to 263 °C. Further, the EC (1.5-fold increase) in series [1] is less than 0.1 µM. In addition, in series [2], the “EC1.5x for Smn protein expression” value is “**** (an EC1.5x≤0.3 μM is indicated by four stars (****))” and the “maximum fold (Fold) increase of Smn protein” value (“maximum fold (Fold) increase” for short) was “***** (a fold increase >1.65 is indicated by five stars (*****))”.
Turning to `COc1ccc(-c2cc(=O)n3cc(N4C[C@@H]5CCN(C)[C@@H]5C4)ccc3n2)cc1F` [Compound 280, 2-(3-fluoro-4-methoxyphenyl)-7-[(3aS,6aS)-1-methylhexahydropyrrolo[3,4-b]pyrrol-5(1H)-yl]-4H-pyrido[1,2-a]pyrimidin-4-one], the melting point was in the range of 207 to 211 °C. Moreover, in series [1], the EC (1.5-fold increase) fell in the range of 1 to 3 µM. For the same molecule, in series [2], the “maximum fold (Fold) increase” value is “* (A maximum fold increase of ≤1.2 is indicated by one star (*))”.
`Cn1cc2cc(-c3cc(=O)n4cc(C5CCN(CCO)CC5)ncc4n3)ccc2n1` [Compound 569, 7-[1-(2-hydroxyethyl)piperidin-4-yl]-2-(2-methyl-2H-indazol-5-yl)-4H-pyrazino[1,2-a]pyrimidin-4-one] displayed a melting point of 230 to 232 °C. The EC (1.5-fold increase) in series [1] was less than 0.1 µM. Also, in series [2], the “EC1.5x for Smn protein expression” value is on record as “**** (an EC1.5x≤0.3 μM is indicated by four stars (****))” and the “maximum fold (Fold) increase” value is given as “***** (a fold increase >1.65 is indicated by five stars (*****))”.
In the same order, the values of `Cc1cc(C2CCN(C)CC2)cn2c(=O)cc(-c3ccc4nn(C)cc4c3)nc12` [Compound 705, 9-methyl-2-(2-methyl-2H-indazol-5-yl)-7-(1-methylpiperidin-4-yl)-4H-pyrido[1,2-a]pyrimidin-4-one] are 222 to 227 °C, less than 0.1 µM, “**** (an EC1.5x≤0.3 μM is indicated by four stars (****))” and “***** (a fold increase >1.65 is indicated by five stars (*****))”.
The molecule `CCc1nc(C)cn2nc(-c3cc(=O)n4cc(C5CCNCC5)cc(C)c4n3)cc12` [Compound 771, 2-(4-ethyl-6-methylpyrazolo[1,5-a]pyrazin-2-yl)-9-methyl-7-(piperidin-4-yl)-4H-pyrido[1,2-a]pyrimidin-4-one] displayed a melting point of 241 to 249 °C. Moreover, the EC (1.5-fold increase) in series [1] is less than 0.1 µM. In series [2], the “EC1.5x for Smn protein expression” value is “**** (an EC1.5x≤0.3 μM is indicated by four stars (****))” and the “maximum fold (Fold) increase” value is “***** (a fold increase >1.65 is indicated by five stars (*****))”.
In the same order, the values of `CCc1nc(C)cn2nc(-c3cc(=O)n4cc(N5C[C@@H](C)N[C@@H](C)C5)ccc4n3)cc12` [Compound 633, 7-[(3R,5S)-3,5-dimethylpiperazin-1-yl]-2-(4-ethyl-6-methylpyrazolo[1,5-a]pyrazin-2-yl)-4H-pyrido[1,2-a]pyrimidin-4-one] are 258 to 260 °C, less than 0.1 µM, “**** (an EC1.5x≤0.3 μM is indicated by four stars (****))” and “***** (a fold increase >1.65 is indicated by five stars (*****))”.
In the case of `Cc1cn2cc(-c3cc(=O)n4cc(N5CCNCC5)ccc4n3)cc(C)c2n1` [Compound 141, 2-(2,8-dimethylimidazo[1,2-a]pyridin-6-yl)-7-(piperazin-1-yl)-4H-pyrido[1,2-a]pyrimidin-4-one], the melting point is 270 to 274 °C. Further, the EC (1.5-fold increase) in series [1] was less than 0.1 µM. Besides, in series [2], the “EC1.5x for Smn protein expression” value was “**** (an EC1.5x≤0.3 μM is indicated by four stars (****))” and the “maximum fold (Fold) increase” value is listed as “***** (a fold increase >1.65 is indicated by five stars (*****))”.
As for `Cc1cn2cc(-c3cc(=O)n4cc(C5CCN(C(C)C)CC5)ccc4n3)cc(Cl)c2n1` [Compound 519, 2-(8-chloro-2-methylimidazo[1,2-a]pyridin-6-yl)-7-[1-(propan-2-yl)piperidin-4-yl]-4H-pyrido[1,2-a]pyrimidin-4-one], the melting point was 279 to 285 °C. Also, the EC (1.5-fold increase) in series [1] was less than 0.1 µM. In series [2], the “EC1.5x for Smn protein expression” value is on record as “**** (an EC1.5x≤0.3 μM is indicated by four stars (****))” and the “maximum fold (Fold) increase” value is listed as “***** (a fold increase >1.65 is indicated by five stars (*****))”.
As to `CCCN1CCN(c2ccc3nc(-c4ccc(OC)c(OC)c4)cc(=O)n3c2)CC1` [Compound 15, 2-(3,4-dimethoxyphenyl)-7-(4-propylpiperazin-1-yl)-4H-pyrido[1,2-a]pyrimidin-4-one], the melting point lay within 185 to 189 °C. For the same molecule, in series [1], the EC (1.5-fold increase) lay in the range of 1 to 3 µM. Also, the “maximum fold (Fold) increase” value in series [2] was “*** (a fold increase between >1.35 and ≤1.5 is indicated by three stars (***))”.
For `N#Cc1cccc(-c2cc(=O)n3cc(N4CCNCC4)ccc3n2)c1` [Compound 150, 3-[4-oxo-7-(piperazin-1-yl)-4H-pyrido[1,2-a]pyrimidin-2-yl]benzonitrile], the melting point is 224 to 231 °C. Moreover, the EC (1.5-fold increase) in series [1] was 0.3 to 1 µM. For the same molecule, in series [2], the “EC1.5x for Smn protein expression” value is “** (an EC1.5× between >1 μM and ≤3 μM is indicated by two stars (**))”; the “maximum fold (Fold) increase” value is “**** (a fold increase between >1.5 and ≤1.65 is indicated by four stars (****))”.
Regarding `Cc1nc2cc(-c3cc(=O)n4cc(N5CCN(C)CC5)ccc4n3)ccc2s1` [Compound 176, 2-(2-methyl-1,3-benzothiazol-5-yl)-7-(4-methylpiperazin-1-yl)-4H-pyrido[1,2-a]pyrimidin-4-one], the melting point is 214 to 218 °C. The EC (1.5-fold increase) in series [1] is 0.3 to 1 µM. Besides, in series [2], the “EC1.5x for Smn protein expression” value is “* (An EC1.5× for Smn protein expression between >3 μM and ≤10 μM is indicated by one star (*))”; the “maximum fold (Fold) increase” value is “*** (a fold increase between >1.35 and ≤1.5 is indicated by three stars (***))”.
`Cc1csc(-c2cc(=O)n3cc(N4CCN[C@@H](C)C4)ccc3n2)n1` [Compound 162, 7-[(3S)-3-methylpiperazin-1-yl]-2-(4-methyl-1,3-thiazol-2-yl)-4H-pyrido[1,2-a]pyrimidin-4-one]: the melting point lay within 225 to 230 °C. Besides, in series [1], the EC (1.5-fold increase) fell in the range of 0.3 to 1 µM. Further, in series [2], the “EC1.5x for Smn protein expression” value is “** (an EC1.5× between >1 μM and ≤3 μM is indicated by two stars (**))”; the “maximum fold (Fold) increase” value is “**** (a fold increase between >1.5 and ≤1.65 is indicated by four stars (****))”.
Regarding `COc1ccc(-c2cc(=O)n3cc(N4CCCNCC4)ccc3n2)cc1` [Compound 5, 7-(1,4-diazepan-1-yl)-2-(4-methoxyphenyl)-4H-pyrido[1,2-a]pyrimidin-4-one], the melting point was 149 to 152 °C. In series [1], the EC (1.5-fold increase) was 3 to 30 µM. Also, the “maximum fold (Fold) increase” value in series [2] is “* (A maximum fold increase of ≤1.2 is indicated by one star (*))”.
`CCc1nc(C)cn2nc(-c3cc(=O)n4cc(N5CCN(CCF)[C@H](C)C5)ccc4n3)cc12` [Compound 666, 2-(4-ethyl-6-methylpyrazolo[1,5-a]pyrazin-2-yl)-7-[(3R)-4-(2-fluoroethyl)-3-methylpiperazin-1-yl]-4H-pyrido[1,2-a]pyrimidin-4-one] displayed a melting point of 255 to 257 °C. Also, the EC (1.5-fold increase) in series [1] is 0.1 to 0.3 µM. For the same molecule, in series [2], the “EC1.5x for Smn protein expression” value is “*** (an EC1.5× between >0.3 μM and ≤1 μM is indicated by three stars (***))”; the “maximum fold (Fold) increase” value is given as “***** (a fold increase >1.65 is indicated by five stars (*****))”.
`COc1ccc(-c2cc(=O)n3cc(OC4CCNCC4)ccc3n2)cc1OC` [Cpd 237, 2-(3,4-dimethoxyphenyl)-7-(piperidin-4-yloxy)-4H-pyrido[1,2-a]pyrimidin-4-one] showed a melting point of 221 to 224 °C. Moreover, in series [1], the EC (1.5-fold increase) is 1 to 3 µM. Moreover, the “maximum fold (Fold) increase” value in series [2] is “*** (a fold increase between >1.35 and ≤1.5 is indicated by three stars (***))”.
With `COc1ccc(-c2cc(=O)n3cc(N4CCC(CN(C)C)CC4)ccc3n2)cc1F` [Compound 226, 7-{4-[(dimethylamino)methyl]piperidin-1-yl}-2-(3-fluoro-4-methoxyphenyl)-4H-pyrido[1,2-a]pyrimidin-4-one], the melting point was in the range of 178 to 185 °C. Besides, in series [1], the EC (1.5-fold increase) was 0.3 to 1 µM. Further, the “maximum fold (Fold) increase” value in series [2] is listed as “* (A maximum fold increase of ≤1.2 is indicated by one star (*))”.
With `COc1cc(F)c(-c2cc(=O)n3cc(N4CCNCC4)ccc3n2)cc1OC` [Compound 64, 2-(2-fluoro-4,5-dimethoxyphenyl)-7-(piperazin-1-yl)-4H-pyrido[1,2-a]pyrimidin-4-one], the melting point was 177 to 180 °C. For the same molecule, in series [1], the EC (1.5-fold increase) lay within 3 to 30 µM. Moreover, in series [2], the “maximum fold (Fold) increase” value is “** (a fold increase between >1.2 and ≤1.35 is indicated by two stars (**))”.
